Legend:
[1] = test system: PMN infiltration; experiment: Peritonitis model, PMN infiltration; assay type: in vivo
[2] = test system: IL-1α; experiment: Real-time PCR of IL-1α mRNA in suture-inflamed corneas; assay type: in vivo, BALB/c mice; details: 24 h and 72 h after suture placement, vs vehicle
Method: (§1) Six to eight-week-old male BALB/c (Taconic Farms, Germantown, N.Y.) mice were used in all experiments. All experimental protocols were approved by the Schepens Eye Research Institute Animal Care and Use Committee, and all animals were treated according to the Association for Research in Vision and Ophthalmology Statement for the Use of Animals in Ophthalmic and Vision Research. […]
(§2) BALB/c mice were randomized to receive RvD1, RvE1 or vehicle (normal saline) by subconjunctival injection in a masked fashion after suture or hydron pellet placement. […] The physical properties were monitored routinely via LC/MS/MS matching the reported biological and physical properties prior to analysis in present experiments. […]
(§3) A combined-method for total RNA isolation was employed, using Trizol (Invitrogen Corp., Carlsbad, Calif.) and RNeasy MinElute Spin Columns (Qiagen, Valencia, Calif.), as described previously.^21 Reverse transcription of total RNA was conducted using oligo(dT)20 primer and Superscript™ III Reverse Transcriptase (Invitrogen, Carlsbad, Calif.). […] The mean density of each band was measured by using NIH image J software. […]

[3] = test system: VEGF-A-induced corneal HA and LA; experiment: Corneal micropocket assay, VEGF-A pellet; assay type: in vivo, BALB/c mice; details: day 7; for BV density: VEGF-A micropellet, mean±SEM, n=4, vehicle 14.75±3.8%, not significantly lower; for reduction of LA: stimulated by VEGF-A micropellet
Method: (§4) Six to eight-week-old male BALB/c (Taconic Farms, Germantown, N.Y.) mice were used in all experiments. All experimental protocols were approved by the Schepens Eye Research Institute Animal Care and Use Committee, and all animals were treated according to the Association for Research in Vision and Ophthalmology Statement for the Use of Animals in Ophthalmic and Vision Research.
(§5) The corneal micropocket assay in mice and quantification of the resultant NV has been described previously.^16,17 In brief, 0.3 μl of hydron pellets (IFN Sciences, New Brunswick, N.J.) containing 30 ng of murine IL-1β (R&D Systems, Minneapolis, Minn.) or 200 ng of VEGF-A (gift from BRB Preclinical Repository, National Cancer Institute) were prepared and implanted into the corneal stroma of male BALB/c mice. After 7 days the animals were sacrificed and the corneas were harvested for quantitative analysis of HA and LA.
(§6) BALB/c mice were randomized to receive RvD1, RvE1 or vehicle (normal saline) by subconjunctival injection in a masked fashion after suture or hydron pellet placement. The compounds were administered at a dose of 100 ng/10 μl per mouse every 48 h after suture or pellet placed. For these experiments, RvD1 and RvE1 were prepared by total organic synthesis as reported previously,^17,18 in the total organic synthesis core for NIH P-50 DE0169191. The physical properties were monitored routinely via LC/MS/MS matching the reported biological and physical properties prior to analysis in present experiments.
(§7) Full thickness corneal tissue or 8 μm-frozen sections were fixed in acetone for 15 minutes at room temperature. To block non-specific staining, anti-FcR mAb ([…], FcγIII/II receptor) or 10% goat serum was used before primary antibodies or isotype-matched control antibodies were applied at 4° C. overnight. Thereafter, samples were incubated with secondary antibodies at RT. Each step was followed by three thorough washings in PBS for 5-10 minutes. Finally, the samples were covered with mounting medium (Vector Laboratories, Burlingame, Calif.) and analyzed by epifluorescence microscopy (Eclipse E800; Nikon, Tokyo, Japan). […]
(§8) To quantify corneal angiogenesis, digital pictures of corneal flat-mounts were taken using an image analysis system (Spot Image Analysis, Diagnostic Instruments, Sterling Heights, Mich.). The areas covered by CD31^high/LYVE-1^−-vessels (blood vessels) or CD31^lowLYVE-1^high vessels (lymphatics) were measured morphometrically using NIH Image J software (version 1.34s; http://rsb.info.nih.gov/ij). […] The vessel density was calculated by the proportion of neovascularized area to the whole corneal area.

[4] = test system: VEGF-A; experiment: Real-time PCR of VEGF-A mRNA in suture-inflamed corneas; assay type: in vivo, BALB/c mice; details: 24 h and 72 h after suture placement, vs vehicle-treated group
Method: as §1, §2, §3

[5] = test system: VEGFR-3; experiment: Real-time PCR of VEGFR-3 mRNA in suture-inflamed corneas; assay type: in vivo, BALB/c mice; details: relative to vehicle-treated controls
Method: as §1, §2, §3

[6] = test system: macrophages; experiment: Macrophage infiltration in suture-inflamed corneas (anti-F4/80 staining of cross-sections); assay type: in vivo, BALB/c mice; details: 72 h after suture placement; 100 ng/10 μl subconjunctival; mean±SEM, n=3; vehicle 83±3
Method: as §1
BALB/c mice were randomized to receive RvD1, RvE1 or vehicle (normal saline) by subconjunctival injection in a masked fashion after suture or hydron pellet placement. […] The physical properties were monitored routinely via LC/MS/MS matching the reported biological and physical properties prior to analysis in present experiments.
Full thickness corneal tissue or 8 μm-frozen sections were fixed in acetone for 15 minutes at room temperature. […] Finally, the samples were covered with mounting medium (Vector Laboratories, Burlingame, Calif.) and analyzed by epifluorescence microscopy (Eclipse E800; Nikon, Tokyo, Japan). […]

[7] = test system: VEGF-C; experiment: Real-time PCR of VEGF-C mRNA in suture-inflamed corneas; assay type: in vivo, BALB/c mice; details: 24 h and 72 h after suture placement, vs vehicle-treated group
Method: as §1, §2, §3

[8] = test system: TNF-α; experiment: Real-time PCR of TNF-α mRNA in suture-inflamed corneas; assay type: in vivo, BALB/c mice; details: vs vehicle
Method: as §4
(§9) The standard model for induction of inflammatory corneal NV is associated with development of intrastromal vessels in close association with a mixed-cell (primarily neutrophilic) infiltrate.^14,15 Three interrupted sutures (11-0 nylon, Sharpoint; Vanguard, Houston, Tex.) were placed intrastromally with two stromal incursions extending over 120° of the corneal circumference each to induce inflammatory corneal NV, which is also associated with significant LA, as described previously.^14 The corneas were followed by slit-lamp biomicroscopy for corneal NV development. NV was graded between 0 and 3, with increments of 0.5, using a grid system per each corneal quadrant based on the centripetal extent of the neovascular branches from the limbus. Scores for each quadrant then summed to derive the NV index (range 0 to 12) for each eye, as previously described.^14
as §6
Corneas were carefully dissected to ensure that the conjunctival and iris tissues were not included. To extract mRNA from whole-thickness corneas, two corneas were pooled as a sample in each group. To extract mRNA from corneal epithelial and stroma-endothelial layers separately, intact corneas were placed in 30 μl of RNA stabilization reagent (RNAlater, Qiagen, Valencia, Calif.) at 4° C. overnight and then stored at −30° C. for 2-3 days. […]
as §3

[9] = test system: IL-1β-induced corneal HA and LA; experiment: Corneal micropocket assay, IL-1β pellet; assay type: in vivo, BALB/c mice; details: day 7; for BV density: IL-1β micropellet, mean±SEM, n=4, vehicle 26.8±2.0%, significantly impaired; for reduction of LA: stimulated by IL-1β micropellet
Method: as §4, §5, §6, §7, §8

[10] = test system: suture-induced corneal NV; experiment: Suture-induced inflammatory corneal angiogenesis (slit-lamp NV score, CD31/LYVE-1 vessel density); assay type: in vivo, BALB/c mice; details: for angiogenic response (corneal neovessels by slit lamp biomicroscopy): 2-week time course, subconjunctival every 48 h, relative to vehicle control; for significant changes in the density of lymphatic vessels / BV density (CD31high/LYVE-1−): day 14 after suture placement; for significant changes in the density of lymphatic vessels: relative to vehicle controls; for BV density (CD31high/LYVE-1−): mean±SEM, n=6, vehicle 23.18±1.12%
Method: as §4, §9, §6
(§10) Full thickness corneal tissue or 8 μm-frozen sections were fixed in acetone for 15 minutes at room temperature. To block non-specific staining, anti-FcR mAb ([…], FcγIII/II receptor) or 10% goat serum was used before primary antibodies or isotype-matched control antibodies were applied at 4° C. overnight. Thereafter, samples were incubated with secondary antibodies at RT. Each step was followed by three thorough washings in PBS for 5-10 minutes. Finally, the samples were covered with mounting medium (Vector Laboratories, Burlingame, Calif.) and analyzed by epifluorescence microscopy (Eclipse E800; Nikon, Tokyo, Japan). The following antibodies were used: FITC-conjugated rat anti-mouse CD31 (Santa Cruz Biotechnology, Santa Cruz, Calif.), purified rat anti-mouse neutrophil (NIMP-R14, Abcam, Cambridge, Mass.), purified rat anti-mouse F4/80 (Novus Biologicals, Littleton, Colo.) and purified rabbit anti-mouse LYVE-1 (Abcam, Cambridge, Mass.). The secondary antibodies were Rodamine-conjugated donkey anti-rabbit IgG and Rodamine-conjugated goat anti-rat IgG (Santa Cruz Biotechnology, Santa Cruz, Calif.). Isotype controls included FITC-conjugated rat IgG2a, purified rat IgG2b, and purified rabbit IgG (Santa Cruz Biotechnology, Santa Cruz, Calif.).
To quantify corneal angiogenesis, digital pictures of corneal flat-mounts were taken using an image analysis system (Spot Image Analysis, Diagnostic Instruments, Sterling Heights, Mich.). The areas covered by CD31^high/LYVE-1^−-vessels (blood vessels) or CD31^lowLYVE-1^high vessels (lymphatics) were measured morphometrically using NIH Image J software (version 1.34s; http://rsb.info.nih.gov/ij). The total corneal area was outlined using the inner-most vessel of the limbal arcade as the border. The vessel density was calculated by the proportion of neovascularized area to the whole corneal area.

[11] = test system: neutrophils; experiment: Neutrophil infiltration in suture-inflamed corneas (anti-neutrophil NIMP-R14 staining of cross-sections); assay type: in vivo, BALB/c mice; details: for neutrophils in inflamed cornea: 100 ng/10 μl subconjunctival at 0 h and 48 h, mean±SEM, n=3; for inhibition of neutrophils recruitment into the inflamed corneas: at 24 and 72 h, compared to vehicle-treated group, p<0.05
Method: as §4, §9, §6, §10

[12] = test system: VEGF-D; experiment: Real-time PCR of VEGF-D mRNA in suture-inflamed corneas; assay type: in vivo, BALB/c mice; details: relative to vehicle-treated controls
Method: as §1, §2, §3

[13] = test system: VEGFR-2; experiment: Real-time PCR of VEGFR-2 mRNA in suture-inflamed corneas; assay type: in vivo, BALB/c mice; details: 24 h and 72 h after suture placement, vs vehicle-treated group
Method: as §1, §2, §3

[14] = 24 h after suture placement, vehicle 81±6
[15] = 72 h after suture placement, vehicle 57±4

SMILES	expression of IL-1α (mRNA) [2]	BV density [3] [%]	reduction of LA [3]	mRNA expression of VEGF-A [4]	mRNA expression of VEGFR-3 [5]	macrophage in inflamed cornea [6] [cells/section]	mRNA expression of VEGF-C [7]	increases in TNF-α expression (mRNA) ([8]; 24 h after suture placement)	increases in TNF-α expression (mRNA) ([8]; 72 h after suture placement)	BV density [9] [%]	reduction of LA [9]	angiogenic response (corneal neovessels by slit lamp biomicroscopy) [10]	significant changes in the density of lymphatic vessels [10]	BV density (CD31high/LYVE-1−) [10] [%]	neutrophils in inflamed cornea [11, 14] [cells/section]	neutrophils in inflamed cornea [11, 15] [cells/section]	inhibition of neutrophils recruitment into the inflamed corneas [11] [%]	mRNA expression of VEGF-D [12]	mRNA expression of VEGFR-2 [13]	further results
CCC(O)/C=C/C=C\C/C=C\C/C=C\C=C\[C@@H](O)CCCC(=O)O (mixture of isomers) [5S, 18 (+/−)-diHEPA]	–	–	–	–	–	–	–	–	–	–	–	–	–	–	–	–	–	–	–	anti-inflammatory activity, PMN infiltration [1]: downregulation of PMN infiltration; potency compared with Resolvin E1 ([1]; at an equal dose amount): equipotent to Resolvin E1
CC/C=C\C[C@H](O)/C=C/C=C\C=C\C=C\[C@@H](O)[C@@H](O)C/C=C\CCC(=O)O [RvD1, 7S,8R,17S-trihydroxy-4Z,9E,11E,13Z,15E,19Z-docosahexaenoic acid]	not significantly altered	10.9±2.3	no significant reduction	lower mRNA expressions	not significantly altered	57±4	lower mRNA expressions	significantly suppressed	not at 72 h	17.1±2.4	no significant reduction	significant suppression	not observed	8.4±0.39	62±4	40±3	~30	not significantly altered	lower mRNA expressions	–
CC[C@@H](O)/C=C/C=C\C[C@@H](O)/C=C/C=C/C=C\[C@@H](O)CCCC(=O)O [RvE1, 5S,12R,18R-trihydroxy-6Z,8E,10E,14Z,16E-EPA]	not significantly altered	14.1±2.2	no significant reduction	lower mRNA expressions	not significantly altered	49±7	lower mRNA expressions	significantly suppressed	significant lowering	18.6±2.2	no significant reduction	significant suppression	not observed	10.92±0.53	52±4	41±4	~30	not significantly altered	lower mRNA expressions	–

— patent US20110301239A1, “USE OF NOVEL LIPID MEDIATORS TO INHIBIT ANGIOGENESIS” (The Brigham and Women's Hospital, Inc., priority 2008, published 2011)
